The results in this text go back to ChEMBL document CHEMBL5370690, “Atypical N-Alkyl to N-Noralkoxy Switch in a Dual cSRC/BCR-ABL1 Kinase Inhibitor Improves Drug Efflux and hERG Affinity” (ACS Med Chem Lett, 2023).

One may read the IC50 as the point on the concentration scale where inhibition reaches its midpoint.

The nature of series [1]: Mutagenicity in Salmonella typhimurium TA100 incubated for 96 hrs by Ames test. In kind it is toxicity. Particulars: salmonella enterica subsp. enterica serovar typhimurium. Background: In the Ames test, an excess of revertant colonies over the control signals mutagenicity.
Series [2] in a line: Mutagenicity in Salmonella typhimurium TA1535 incubated for 96 hrs by Ames test. In kind it is toxicity. The conditions noted are these: salmonella enterica subsp. enterica serovar typhimurium.
Series [3] can be described thus: Mutagenicity in Salmonella typhimurium TA1537 incubated for 96 hrs by Ames test. Particulars: salmonella enterica subsp. enterica serovar typhimurium. Format: toxicity.
Series [4] is described as follows: Mutagenicity in Salmonella typhimurium TA98 incubated for 96 hrs by Ames test. In kind it is toxicity. Particulars: salmonella enterica subsp. enterica serovar typhimurium.
The next series has as its system MEG-01. Kind of series: Antiproliferative activity against human MEG-01 cells assessed as cell growth inhibition incubated for 72 hrs by Cell Titer-Glo Luminescent assay. Format: functional, cell-based. Particulars: MEG-01, 72 h. For orientation: Cellular ATP, detected with luciferase, serves as a proxy for viable cell number.
The subject of the next series is SUP-B15. In words: Antiproliferative activity against human SUP-B15 cells assessed as cell growth inhibition incubated for 72 hrs by Cell Titer-Glo Luminescent assay. In kind it is functional, cell-based. Particulars: SUP-B15, 72 h.
The test system of the next series is KU812 cell line. In words: Antiproliferative activity against human KU812 cell line assessed as cell growth inhibition incubated for 72 hrs by Cell Titer-Glo Luminescent assay. The conditions noted are these: KU812, 72 h. In kind it is functional, cell-based.

Regarding `COc1cc(Nc2c(C#N)cnc3cc(OCCON4CCN(C)CC4)c(OC)cc23)c(Cl)cc1Cl`, the Activity result in series [1], in series [2], in series [3] and in series [4] was “Non-Toxic” in each case.
With `COc1cc(Nc2c(C#N)cnc3cc(OCCCN4CCN(C)CC4)c(OC)cc23)c(Cl)cc1Cl` [BOSUTINIB], the half-maximal inhibitory concentration (IC50) in the series on MEG-01 came to 0.013 µM; with SUP-B15, 0.21 µM; with KU812 cell line it was 0.0036 µM.
